Legend:
SIK2 [1] = target: T1, SIK2 (Homo sapiens, UniProt Q9H0K1); experiment: SIK2 Enzymatic Assay Version 1 (ADP Glo); format: biochemical; conditions: enzyme 0.6 nM, 160 μM ATP and 140 μM HDAC5tide (each 2× final concentration); 30 minutes pre-incubation, 4 hours; ADPGlo luminescence; read-out: SIK2 ADP Glo IC50 (μM) (Test Example 1)
In short: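 Room-temperature ADP-Glo luminescence assay; SIK2 added at 0.6 nM (2× final) and preincubated with compound for 30 min. Reaction stopped with ADP-Glo Reagent for 40 min, then detection reagent for at least 30 min; no-peptide (ATP-only) wells served as negative control.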

SIK2 [2] = target: T1, SIK2; experiment: SIK2 Enzymatic Assay High Version 2 (High ATP); format: biochemical
In short: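 At room temperature, enzyme (6 nM, 2× final) was preincubated with compound for 30 min, then 6 mM ATP and 400 μM HDAC5tide (both 2× final) were added for 2 h. ADP formed was measured by ADP-Glo Max (2 h reagent, 1 h detection) using luminescence.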

T1 sequence (Q9H0K1 whole entry, species assumed): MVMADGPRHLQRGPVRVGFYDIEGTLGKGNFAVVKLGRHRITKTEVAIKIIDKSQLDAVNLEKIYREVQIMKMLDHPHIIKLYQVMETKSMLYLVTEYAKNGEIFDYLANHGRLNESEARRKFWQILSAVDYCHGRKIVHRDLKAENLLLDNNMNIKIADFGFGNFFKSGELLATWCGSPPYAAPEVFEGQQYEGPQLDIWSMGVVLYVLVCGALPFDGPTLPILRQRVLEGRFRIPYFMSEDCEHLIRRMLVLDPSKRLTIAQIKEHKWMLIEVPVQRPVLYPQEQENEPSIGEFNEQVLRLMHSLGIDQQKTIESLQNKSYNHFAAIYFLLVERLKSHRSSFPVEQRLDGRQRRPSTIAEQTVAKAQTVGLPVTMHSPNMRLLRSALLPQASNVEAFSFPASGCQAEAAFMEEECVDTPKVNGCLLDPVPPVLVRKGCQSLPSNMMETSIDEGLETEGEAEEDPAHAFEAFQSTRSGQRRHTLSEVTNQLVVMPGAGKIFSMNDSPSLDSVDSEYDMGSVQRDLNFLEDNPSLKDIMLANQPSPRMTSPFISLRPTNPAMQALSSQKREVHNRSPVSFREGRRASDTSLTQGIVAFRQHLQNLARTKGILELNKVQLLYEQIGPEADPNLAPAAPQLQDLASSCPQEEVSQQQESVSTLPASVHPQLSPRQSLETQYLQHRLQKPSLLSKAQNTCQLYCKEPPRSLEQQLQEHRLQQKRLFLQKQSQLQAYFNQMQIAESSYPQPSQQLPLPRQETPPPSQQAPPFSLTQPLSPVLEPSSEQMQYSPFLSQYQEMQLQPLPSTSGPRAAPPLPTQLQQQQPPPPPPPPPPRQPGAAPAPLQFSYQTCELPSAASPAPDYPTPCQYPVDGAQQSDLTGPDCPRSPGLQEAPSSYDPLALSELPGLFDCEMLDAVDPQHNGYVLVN

SMILES | IC50 (SIK2 [1]) [µM] | IC50 (SIK2 [2]) [nM]
Cc1cc(-c2ccn3nc(NC(=O)C4CC4)cc3c2)c(O[C@H]2C[C@](C)(N)C2)cn1 [Example 444, N-(5-(5-((1r,3r)-3-amino-3-methylcyclobutoxy)-2-methylpyridin-4-yl)pyrazolo[1,5-a]pyridin-2-yl)cyclopropanecarboxamide] | 0.000605 | 1.63
CN1C[C@H]2C[C@@H]1C[C@H]2Oc1cnc(C#N)cc1-c1ccn2nc(NC(=O)C3CC3)cc2c1 [Example 13, N-[5-[2-cyano-5-[[(1R,4R,5R)-2-methyl-2-azabicyclo[2.2.1]heptan-5-yl]oxy]-4-pyridyl]pyrazolo[1,5-a]pyridin-2-yl]cyclopropanecarboxamide] | 0.0208 | 305
N#Cc1cc(-c2ccn3nc(NC(=O)C4CC4)cc3c2)c(OCC2(O)CCCC2)cn1 [Example 42, N-[5-[2-cyano-5-[(1-hydroxycyclopentyl)methoxy]-4-pyridyl]pyrazolo[1,5-a]pyridin-2-yl]cyclopropanecarboxamide] | 0.00169 | 45.5
C[C@]1(O)CC[C@@H](Oc2cnc(C#N)cc2-c2ccn3nc(NC(=O)C4CC4)cc3c2)CC1 [Example 89] | 0.000299 | 3.04
N#Cc1cc(-c2ccn3nc(NC(=O)C4CC4)cc3c2)c(O[C@H]2CC[C@@H](O)CC2)cn1 [Example 86, N-(5-(2-cyano-5-(((1s,4s)-4-hydroxycyclohexyl)oxy)pyridin-4-yl)pyrazolo[1,5-a]pyridin-2-yl)cyclopropanecarboxamide] | 0.000204 | 2.76

The next lines start with the values.

IC50 (SIK2 [1]) [µM] | IC50 (SIK2 [2]) [nM] | SMILES
0.00588 | 31 | CC1(C)CNC[C@@H](COc2ccc(C#N)cc2-c2ccn3nc(NC(=O)C4CC4)cc3c2)O1 [Example 104, N-[5-[5-cyano-2-[[(2S)-6,6-dimethylmorpholin-2-yl]methoxy]phenyl]pyrazolo[1,5-a]pyridin-2-yl]cyclopropanecarboxamide]
0.00369 | 78.8 | CNC1(COc2cnc(C)cc2-c2ccn3nc(NC(=O)C4CC4)cc3c2)CCC1 [Example 156, N-[5-[2-methyl-5-[[1-(methylamino)cyclobutyl]methoxy]-4-pyridyl]pyrazolo[1,5-a]pyridin-2-yl]cyclopropanecarboxamide]
0.00108 | 15.6 | Cc1cc(-c2ccn3nc(NC(=O)C4CC4)cc3c2)c(OCC2(N)CCCC2)cn1 [Example 155, N-[5-[5-[(1-aminocyclopentyl)methoxy]-2-methyl-4-pyridyl]pyrazolo[1,5-a]pyridin-2-yl]cyclopropanecarboxamide]
0.00328 | 62.2 | Cc1cc(-c2ccn3nc(Nc4cc(C)nc(C)n4)cc3c2)c(OC[C@H]2CC[C@@H](O)CO2)cn1 (single isomer, unassigned) [Example 582, (3*R, 6*R)-6-[[4-[2-[(2,6-dimethylpyrimidin-4-yl)amino]pyrazolo[1,5-a]pyridin-5-yl]-6-methyl-3-pyridyl]oxymethyl]tetrahydropyran-3-ol]
0.00625 | 75.9 | N#Cc1cc(-c2ccn3nc(NC(=O)C4CC4)cc3c2)c(OC[C@@H]2CCN(C3CC3)C2)cn1 [Example 589, N-[5-[2-cyano-5-[[(3R)-1-cyclopropylpyrrolidin-3-yl]methoxy]-4-pyridyl]pyrazolo[1,5-a]pyridin-2-yl]cyclopropanecarboxamide]
0.00295 | 37.6 | N#Cc1cc(-c2ccn3nc(NC(=O)C4CC4)cc3c2)c(OCC(O)(C(F)(F)F)C(F)(F)F)cn1 [Example 99, N-[5-[2-cyano-5-[3,3,3-trifluoro-2-hydroxy-2-(trifluoromethyl)propoxy]-4-pyridyl]pyrazolo[1,5-a]pyridin-2-yl]cyclopropanecarboxamide]
0.000617 | 12.3 | Cc1cc(-c2ccn3nc(NC(=O)C4CC4)cc3c2)c(OC[C@H]2C[C@@H](N)C2)cn1 [Example 171, cis-N-[5-[5-[(3-aminocyclobutyl)methoxy]-2-methyl-4-pyridyl]pyrazolo[1,5-a]pyridin-2-yl]cyclopropanecarboxamide]
